# Test results as given in ChEMBL document CHEMBL4359906, “Design and synthesis of new N-terminal fatty acid modified-antimicrobial peptide analogues with potent in vitro biological activity” (Eur J Med Chem, 2019).
# Calls of active or inactive are those of the source. The rule behind the calls is not given here.
# What was measured:
# [1] = system: Escherichia coli; assay: Ratio of antibacterial activity against Escherichia coli ATCC 25922 in presence of FeCl3 to antibacterial activity against Escherichia coli ATCC 25922; type: functional
# [2] = Selectivity index, ratio of MHC10 for human RBC to geometric mean of peptide MIC for gram negative bacteria; type: toxicity; conditions: human red blood cells, read-out: Selectivity Index
# [3] = system: Escherichia coli; assay: Antibacterial activity against Escherichia coli ATCC 25922 after 18 hrs by CLSI based broth microdilution method; type: functional; conditions: ATCC 25922, 18 h
# [4] = system: Escherichia coli; assay: Potentiation of polymyxin B-induced antibacterial activity against Escherichia coli ATCC 25922 assessed as FICI after 18 hrs by checker board assay; type: functional
# [5] = system: Escherichia coli; assay: Induction of outer membrane permeabilization in Escherichia coli ATCC 25922 measured up to 12 mins by NPN-dye based assay; type: organism-based
# [6] = system: Pseudomonas aeruginosa; assay: Antibacterial activity against Pseudomonas aeruginosa ATCC 27853 after 18 hrs by CLSI based broth microdilution method; type: functional; conditions: ATCC 27853, 18 h
# [7] = system: Klebsiella pneumoniae; assay: Antibacterial activity against Klebsiella pneumoniae ATCC 700603 after 18 hrs by CLSI based broth microdilution method; type: functional; conditions: Klebsiella pneumoniae, 700603, 18 h
# [8] = system: Escherichia coli; assay: Induction of membrane disruption in Escherichia coli ATCC 25922 assessed as fracture in membrane at 4 times of MIC after 2 hrs by SEM analysis; type: functional, organism-based
# [9] = system: Escherichia coli; assay: Ratio of antibacterial activity against Escherichia coli ATCC 25922 in presence of NaCl to antibacterial activity against Escherichia coli ATCC 25922; type: functional
# [10] = system: Staphylococcus aureus; assay: Ratio of antibacterial activity against Staphylococcus aureus ATCC 25923 in presence of FeCl3 to antibacterial activity against Staphylococcus aureus ATCC 25923; type: functional
# [11] = system: Escherichia coli; assay: Ratio of MIC for Escherichia coli ATCC 25922 preincubated for 1 hr in presence of 10% mouse serum and measured after 18 hrs to MIC for antibacterial activity against Escherichia coli ATCC 25922 after 18 hrs; type: functional
# [12] = system: Escherichia coli; assay: Antibiofilm activity against Escherichia coli ATCC 25922 after 24 hrs by crystal violet staining based assay; type: functional, organism-based
# [13] = system: Escherichia coli; assay: Induction of ROS generation in Escherichia coli ATCC 25922; type: functional, organism-based
# [14] = system: Escherichia coli; assay: Induction of membrane disruption in Escherichia coli ATCC 25922 assessed as degeneration in membrane at 4 times of MIC after 2 hrs by SEM analysis; type: functional, organism-based
# [15] = system: Escherichia coli; assay: Induction of inner membrane permeabilization in Escherichia coli ATCC 43837 assessed as increase in ONPG release at 1 to 2 times of MIC by ONPG dye based assay; type: organism-based
# [16] = system: Escherichia coli; assay: Antibacterial activity against Escherichia coli ATCC 25922 at 0.5 times MIC incubated for 18 hrs measured for 15 passages by CLSI based broth microdilution method; type: functional, organism-based
# [17] = system: Escherichia coli; assay: Potentiation of rifampicin-induced antibacterial activity against Escherichia coli ATCC 25922 assessed as FICI after 18 hrs by checker board assay; type: functional
# [18] = system: Klebsiella pneumoniae; assay: Potentiation of polymyxin B-induced antibacterial activity against Klebsiella pneumoniae ATCC 700603 assessed as FICI after 18 hrs by checker board assay; type: functional
# [19] = system: Erythrocyte; assay: Hemolytic activity in human RBC measured after 1 hr by microplate reader analysis; type: ADME, cell-based
# [20] = system: Escherichia coli; assay: Ratio of antibacterial activity against Escherichia coli ATCC 25922 in presence of MgCl2 to antibacterial activity against Escherichia coli ATCC 25922; type: functional
# [21] = system: Staphylococcus aureus; assay: Antibacterial activity against Staphylococcus aureus ATCC 25923 after 18 hrs by CLSI based broth microdilution method; type: functional; conditions: ATCC 25923, 18 h
# [22] = system: Staphylococcus aureus; assay: Ratio of antibacterial activity against Staphylococcus aureus ATCC 25923 in presence of NaCl to antibacterial activity against Staphylococcus aureus ATCC 25923; type: functional
# [23] = system: Klebsiella pneumoniae; assay: Potentiation of rifampicin-induced antibacterial activity against Klebsiella pneumoniae ATCC 700603 assessed as FICI after 18 hrs by checker board assay; type: functional
# [24] = system: Escherichia coli; assay: Antibiofilm activity against Escherichia coli ATCC 25922 at 2 times MIC after 24 hrs by crystal violet staining based assay; type: functional, organism-based
# [25] = system: Bacillus subtilis; assay: Antibacterial activity against Bacillus subtilis ATCC 23857 after 18 hrs by CLSI based broth microdilution method; type: functional; conditions: ATCC 23857, 18 h
# [26] = system: Pseudomonas aeruginosa; assay: Potentiation of polymyxin B-induced antibacterial activity against Pseudomonas aeruginosa ATCC 27853 assessed as FICI after 18 hrs by checker board assay; type: functional
# [27] = system: Staphylococcus aureus; assay: Antibiofilm activity against Staphylococcus aureus ATCC 25923 after 24 hrs by crystal violet staining based assay; type: functional, organism-based
# [28] = system: Escherichia coli; assay: Induction of membrane disruption in Escherichia coli ATCC 25922 assessed as rough membrane surface at 4 times of MIC after 2 hrs by SEM analysis; type: functional, organism-based
# [29] = system: Escherichia coli; assay: Disruption of membrane integrity in Escherichia coli ATCC 25922 assessed as membrane damage by measuring PI fluorescence at 2 times of MIC incubated for 1 hr by PI dye based flow cytometric analysis (reference value: 1.35%); type: functional
# [30] = system: DNA; assay: Binding affinity to Escherichia coli ATCC 25922 genomic DNA after 30 mins by agarose gel electrophoresis; type: nucleic-acid assay
# [31] = system: Escherichia coli; assay: Antibacterial activity against Escherichia coli ATCC 43837 after 18 hrs by CLSI based broth microdilution method; type: functional; conditions: ATCC 43837, 18 h
# [32] = system: Escherichia coli; assay: Induction of membrane disruption in Escherichia coli ATCC 25922 assessed as corrugated membrane surface at 4 times of MIC after 2 hrs by SEM analysis; type: functional, organism-based
# [33] = system: Escherichia coli; assay: Antimicrobial activity against Escherichia coli ATCC 25922 at 1 mM preincubated for 6 hrs in presence of 2000 ug/ml trypsin and measured after 18 hrs by microplate reader analysis; type: functional, organism-based
# [34] = system: Staphylococcus aureus; assay: Ratio of antibacterial activity against Staphylococcus aureus ATCC 25923 in presence of MgCl2 to antibacterial activity against Staphylococcus aureus ATCC 25923; type: functional
# [35] = system: Staphylococcus aureus; assay: Antibacterial activity against methicillin-resistant Staphylococcus aureus 936 after 18 hrs by CLSI based broth microdilution method; type: functional; conditions: Staphylococcus aureus, 936, 18 h
# [36] = system: Escherichia coli; assay: Disruption of membrane integrity in Escherichia coli ATCC 25922 assessed as membrane damage by measuring PI fluorescence at 4 times of MIC incubated for 1 hr by PI dye based flow cytometric analysis (reference value: 1.35%); type: functional
# [37] = system: Escherichia coli; assay: Induction of inner membrane permeabilization in Escherichia coli ATCC 43837 assessed as increase in ONPG release at 4 times of MIC by ONPG dye based assay; type: organism-based
# [38] = system: Staphylococcus aureus; assay: Ratio of antibacterial activity against Staphylococcus aureus ATCC 25923 in presence of KCl to antibacterial activity against Staphylococcus aureus ATCC 25923; type: functional
# [39] = system: Pseudomonas aeruginosa; assay: Potentiation of rifampicin-induced antibacterial activity against Pseudomonas aeruginosa ATCC 27853 assessed as FICI after 18 hrs by checker board assay; type: functional
# [40] = system: Pseudomonas aeruginosa; assay: Antibiofilm activity against Pseudomonas aeruginosa ATCC 27853 at 0.25 to 2 times of MIC after 24 hrs by crystal violet staining based assay; type: functional, organism-based
SMILES,Ratio [1],selectivity ratio [2],MIC [3] [µM],fractional inhibitory concentration index (FICI) [4],Activity [5],MIC [6] [µM],MIC [7] [µM],Activity [8],Ratio [9],Ratio [10],Ratio [11],inhibition [12],Activity [13],Activity [14],Activity [16],fractional inhibitory concentration index (FICI) [17],fractional inhibitory concentration index (FICI) [18],MHC10 [19] [µM],Ratio [20],MIC [21] [µM],also measured
CCCCCCCCCCCC(=O)NCC(=O)N[C@@H](CC(C)C)C(=O)N[C@@H](CC(C)C)C(=O)N[C@H](CCCCN)C(=O)N[C@@H](CCCNC(=N)N)C(=O)N[C@H](C(=O)N[C@H](CCCCN)C(=O)N[C@H](C(=O)N[C@@H](CC(C)C)C(=O)N[C@@H](CC(C)C)C(N)=O)[C@@H](C)O)[C@@H](C)CC,2 - 4,1.14,16,0.1875,Dose-dependent effect,16,8,Active,2 - 4,2 - 4,1,Dose-dependent effect,inactive,Active,Active,0.5625,0.3125,16,2 - 4,4,Activity [15]: Active; Ratio [22]: 2 - 4; fractional inhibitory concentration index (FICI) [23]: 0.5625; inhibition [24]: Active; MIC [25]: 2 µM; fractional inhibitory concentration index (FICI) [26]: 0.1875; inhibition [27]: Dose-dependent effect; Activity [28]: Active; Activity [29]: 60.8%; Activity [30]: Dose-dependent effect; MIC [31]: 16 µM; Activity [32]: Active; Activity [33]: Active; Ratio [34]: 2 - 4; MIC [35]: 16 µM; Activity [36]: 94.7%; Activity [37]: Active; Ratio [38]: 2 - 4; fractional inhibitory concentration index (FICI) [39]: 0.3125
CCCCCCCCCC(=O)NCC(=O)N[C@@H](CC(C)C)C(=O)N[C@@H](CC(C)C)C(=O)N[C@H](CCCCN)C(=O)N[C@@H](CCCNC(=N)N)C(=O)N[C@H](C(=O)N[C@H](CCCCN)C(=O)N[C@H](C(=O)N[C@@H](CC(C)C)C(=O)N[C@@H](CC(C)C)C(N)=O)[C@@H](C)O)[C@@H](C)CC,2 - 4,5.33,16,0.3125,Dose-dependent effect,8,16,Active,2 - 4,2 - 4,1,Dose-dependent effect,inactive,Active,Active,0.1875,0.3125,64,2 - 4,8,Ratio [22]: 2 - 4; fractional inhibitory concentration index (FICI) [23]: 0.3125; inhibition [24]: inactive; MIC [25]: 8 µM; fractional inhibitory concentration index (FICI) [26]: 0.125; inhibition [27]: Dose-dependent effect; Activity [28]: Active; Activity [29]: 49.6%; Activity [30]: Dose-dependent effect; MIC [31]: 8 µM; Activity [32]: Active; Activity [33]: Active; Ratio [34]: 2 - 4; MIC [35]: 8 µM; Activity [36]: 75.9%; Activity [37]: Active; Ratio [38]: 2 - 4; fractional inhibitory concentration index (FICI) [39]: 0.3125
CCCCCCCC(=O)NCC(=O)N[C@@H](CC(C)C)C(=O)N[C@@H](CC(C)C)C(=O)N[C@H](CCCCN)C(=O)N[C@@H](CCCNC(=N)N)C(=O)N[C@H](C(=O)N[C@H](CCCCN)C(=O)N[C@H](C(=O)N[C@@H](CC(C)C)C(=O)N[C@@H](CC(C)C)C(N)=O)[C@@H](C)O)[C@@H](C)CC,2 - 4,12.2,64,0.1875,Dose-dependent effect,8,64,Active,2 - 4,2 - 4,1,Dose-dependent effect,inactive,Active,Active,0.0625,0.0625,> 256,2 - 4,32,inhibition [40]: Active; Ratio [22]: 2 - 4; fractional inhibitory concentration index (FICI) [23]: 0.0625; inhibition [24]: Active; MIC [25]: 4 µM; fractional inhibitory concentration index (FICI) [26]: 0.1875; inhibition [27]: Dose-dependent effect; Activity [28]: Active; Activity [29]: 64.6%; Activity [30]: Dose-dependent effect; MIC [31]: 32 µM; Activity [32]: Active; Activity [33]: Active; Ratio [34]: 2 - 4; MIC [35]: 64 µM; Activity [36]: 70.8%; Activity [37]: Active; Ratio [38]: 2 - 4; fractional inhibitory concentration index (FICI) [39]: 0.75
